The source of these data is article PMC12287261 (Scientific Reports, 2025).

As usually defined, the Km is the concentration of substrate that gives half-maximal velocity.

This experiment has as its system CamASNase. Kind of experiment: initial rates at varied L-asparagine, Lineweaver-Burk. Format: biochemical, Chryseomicrobium amylolyticum. The settings on record: pH 7.4, 37 °C; L-asparagine 1 to 80 µM.

Regarding `NC(=O)C[C@H](N)C(=O)O` [L-asparagine], the Km was 6.36 µM.
